The text below walks through data of PMC4581723, “Evaluation of In Vitro Activity of the Class I PI3K Inhibitor Buparlisib (BKM120) in Pediatric Bone and Soft Tissue Sarcomas” (PLoS ONE, 2015).

One data set deals with TC-174. Kind of data set: Cell viability assay (MTT), 72 h. Format: cell-based. The conditions noted are these: TC-174 (ES), read-out: GDC-0941 cell viability IC50.
The test system of the next data set is SJSA. Kind of data set: Cell viability assay (MTT), 72 h. The conditions noted are these: SJSA (OS), read-out: GDC-0941 cell viability IC50. In kind it is cell-based.
The subject of a further data set is A204. As to the kind of experiment: Cell viability assay (MTT), 72 h. Format: cell-based. The conditions noted are these: Homo sapiens, A204 (RMS), read-out: GDC-0941 cell viability IC50.
The next data set has as its system HOS. As to the kind of experiment: Cell viability assay (MTT), 72 h. In kind it is cell-based. To be noted: Homo sapiens, HOS (OS), read-out: GDC-0941 cell viability IC50.
Another data set relates to RD. Kind of data set: Cell viability assay (MTT), 72 h. In kind it is cell-based. The conditions noted are these: Homo sapiens, RD (RMS), read-out: GDC-0941 cell viability IC50.
The subject of the next data set is KHOS. Kind of data set: Cell viability assay (MTT), 72 h. To be noted: KHOS (OS), read-out: GDC-0941 cell viability IC50. Format: cell-based.
Another data set has as its system A4573. As to the kind of experiment: Cell viability assay (MTT), 72 h. The conditions noted are these: A4573 (ES), read-out: GDC-0941 cell viability IC50. Format: cell-based.
Data set [1] has as its system osteosarcoma. The conditions noted are these: cited from earlier work.
Data set [2] has as its system osteosarcoma. Also on record: method as in PMID 24961790, PMID 24333720. To be noted: cited from earlier work.
Data set [3] deals with pediatric tumor cell lines. On the set-up: method as in PMID 23002019. The conditions noted are these: panel of pediatric tumor cell lines, including sarcomas; read-out: median relative IC50; cited from earlier work.
Data set [4] relates to chronic lymphocytic leukemia. To be noted: cited from earlier work.
The next data set relates to TC-32. As to the kind of experiment: Cell viability assay (MTT), 72 h. In kind it is cell-based. The conditions noted are these: TC-32 cells.
In data set [5] the test system is bone and soft-tissue sarcomas. Also on record: method as in PMID 23477833. To be noted: combination with the mTOR inhibitor temsirolimus; phase II; patients with bone and soft-tissue sarcomas; cited from earlier work.

Broadly, the IC50 is the concentration that inhibits the measured activity by half.

Like-named read-outs stand apart in the source and are kept apart here.

`CS(=O)(=O)N1CCN(Cc2cc3nc(-c4cccc5[nH]ncc45)nc(N4CCOCC4)c3s2)CC1` [GDC-0941, pictilisib]: the IC50 came out at 170 nM in the data set on TC-174; 297 nM with SJSA; 27.1 nM in the data set with A204; 161 nM with HOS; 278 nM in the data set with RD; 1200 nM with KHOS. Further, the IC50 in the data set with A4573 amounted to 376 nM.
As for `Cn1c(=O)n(-c2ccc(C(C)(C)C#N)cc2)c2c3cc(-c4cnc5ccccc5c4)ccc3ncc21` [NVP-BEZ235], the “tumor growth in vivo” value in the data set on osteosarcoma [1] was “inhibited”. Moreover, the “in vitro cellular proliferation” value with osteosarcoma [2] is given as “inhibited”.
For the molecule `Cc1nc(NC(=O)N2CCC[C@H]2C(N)=O)sc1-c1ccnc(C(C)(C)C(F)(F)F)c1` [NVP-BYL719], the “tumor growth in vivo” value in the data set with osteosarcoma [1] is “inhibited”. The tumor growth entry in the data set with osteosarcoma [1] (combined with the chemotherapeutic agent ifosfamide) was “synergistically inhibited tumor growth”. In addition, in the data set on osteosarcoma [2], the “in vitro cellular proliferation” value is given as “inhibited”.
For `COc1ccc(Cl)c(Nc2nc3ccccc3nc2NS(=O)(=O)c2cccc(NC(=O)C(C)(C)N)c2)c1` [SAR245408], in [3], the IC50 was 10900 nM.
Consider `CC[C@H](Nc1ncnc2[nH]cnc12)c1nc2cccc(F)c2c(=O)n1-c1ccccc1` [idelalisib], for which the overall response rate in data set [4] (combined with rituximab) was 81%; in data set [4] (single agent) it was 72%.
Take `CC(=O)Nc1cccc(-n2c(=O)n(C3CC3)c(=O)c3c(Nc4ccc(I)cc4F)n(C)c(=O)c(C)c32)c1` [tramenitib, trametinib]: the “cytotoxicity as single agent” value with TC-32 was “no tramenitib cytotoxicity was observed”.
Consider “cixutmumuab: IGF1R antibody, evaluated in combination with the mTOR inhibitor temsirolimus”, for which the response rate in data set [5] is reported as 15%.
